Source: the CheMixHub viscosity set
± gives the uncertainty stated by the source.

Experiment: xn = mol fraction of the nth substance listed

CC(C)NC(C)C + CCCCCCO
viscosity [mPa·s], 101 kPa
Conditions | 298.15 K | 303.15 K | 308.15 K
x1 = 0.0503 | 3.969 ± 0.066 | 3.366 ± 0.065 | 2.859 ± 0.063
x1 = 0.1067 | 3.51 ± 0.065 | 3.018 ± 0.064 | 2.588 ± 0.063
x1 = 0.1499 | 3.195 ± 0.064 | 2.751 ± 0.063 | 2.379 ± 0.062
x1 = 0.2041 | 2.823 ± 0.063 | 2.438 ± 0.063 | 2.114 ± 0.062
x1 = 0.253 | 2.501 ± 0.063 | 2.171 ± 0.062 | 1.901 ± 0.062
x1 = 0.3054 | 2.188 ± 0.062 | 1.9 ± 0.062 | 1.675 ± 0.061
x1 = 0.4026 | 1.665 ± 0.061 | 1.475 ± 0.061 | 1.318 ± 0.061
x1 = 0.4986 | 1.272 ± 0.061 | 1.156 ± 0.061 | 1.046 ± 0.061
x1 = 0.6007 | 0.952 ± 0.06 | 0.883 ± 0.06 | 0.813 ± 0.06
x1 = 0.7077 | 0.718 ± 0.06 | 0.675 ± 0.06 | 0.628 ± 0.06
x1 = 0.7994 | 0.582 ± 0.06 | 0.547 ± 0.06 | 0.514 ± 0.06
x1 = 0.8518 | 0.52 ± 0.06 | 0.492 ± 0.06 | 0.462 ± 0.06
x1 = 0.9021 | 0.471 ± 0.06 | 0.443 ± 0.06 | 0.42 ± 0.06
x1 = 0.9545 | 0.42 ± 0.06 | 0.401 ± 0.06 | 0.378 ± 0.06

C=CCN=C=S + CN(C)c1ccccc1
303.15 K, 101 kPa
Conditions | viscosity [mPa·s]
x1 = 0.2324 | 1.032 ± 0.027
x1 = 0.4846 | 0.884 ± 0.023
x1 = 0.7377 | 0.761 ± 0.02

C=C(C)C(=O)OCCCC + CC#N
viscosity [mPa·s], 101 kPa
Conditions | 298.15 K | 303.15 K | 308.15 K | 313.15 K | 318.15 K
x2 = 0.0681 | 0.8436 ± 0.018 | 0.7784 ± 0.017 | 0.7223 ± 0.015 | 0.6777 ± 0.014 | 0.6423 ± 0.014
x2 = 0.1359 | 0.8101 ± 0.017 | 0.7487 ± 0.016 | 0.6958 ± 0.015 | 0.6537 ± 0.014 | 0.6202 ± 0.013
x2 = 0.1976 | 0.7793 ± 0.017 | 0.7213 ± 0.015 | 0.6713 ± 0.014 | 0.6314 ± 0.013 | 0.5995 ± 0.013
x2 = 0.2728 | 0.7411 ± 0.016 | 0.6872 ± 0.015 | 0.6407 ± 0.014 | 0.6035 ± 0.013 | 0.5735 ± 0.012
x2 = 0.3442 | 0.7043 ± 0.015 | 0.6543 ± 0.014 | 0.6111 ± 0.013 | 0.5764 ± 0.012 | 0.5483 ± 0.012
x2 = 0.4143 | 0.6677 ± 0.014 | 0.6215 ± 0.013 | 0.5815 ± 0.012 | 0.5492 ± 0.012 | 0.5229 ± 0.011
x2 = 0.4658 | 0.6405 ± 0.014 | 0.5971 ± 0.013 | 0.5594 ± 0.012 | 0.5289 ± 0.011 | 0.5039 ± 0.011
x2 = 0.5243 | 0.6094 ± 0.013 | 0.5691 ± 0.012 | 0.534 ± 0.011 | 0.5055 ± 0.011 | 0.482 ± 0.01
x2 = 0.5649 | 0.5876 ± 0.013 | 0.5495 ± 0.012 | 0.5162 ± 0.011 | 0.4891 ± 0.01 | 0.4665 ± 0.0099
x2 = 0.639 | 0.5475 ± 0.012 | 0.5133 ± 0.011 | 0.4834 ± 0.01 | 0.4587 ± 0.0097 | 0.4379 ± 0.0093
x2 = 0.7112 | 0.508 ± 0.011 | 0.4776 ± 0.01 | 0.4508 ± 0.0096 | 0.4285 ± 0.0091 | 0.4095 ± 0.0087
x2 = 0.7836 | 0.468 ± 0.0099 | 0.4413 ± 0.0094 | 0.4178 ± 0.0089 | 0.3978 ± 0.0085 | 0.3805 ± 0.0081
x2 = 0.8558 | 0.4277 ± 0.0091 | 0.4048 ± 0.0086 | 0.3844 ± 0.0082 | 0.3668 ± 0.0078 | 0.3512 ± 0.0075
x2 = 0.928 | 0.3871 ± 0.0082 | 0.3679 ± 0.0078 | 0.3506 ± 0.0075 | 0.3353 ± 0.0072 | 0.3214 ± 0.0069

CCCCCCCCCCCO + CCCCCCCCCCO
Conditions | viscosity [mPa·s]
293.15 K, 101.33 kPa, x2 = 0.1426 | 16.47 ± 0.38
293.15 K, 101.33 kPa, x2 = 0.4429 | 15.7 ± 0.36
293.15 K, 101.33 kPa, x2 = 0.6078 | 15.37 ± 0.36
293.15 K, 101.33 kPa, x2 = 0.7475 | 15.08 ± 0.35
293.15 K, 101.33 kPa, x2 = 0.889 | 14.71 ± 0.34
298.15 K, 101 kPa, x2 = 0.6999 | 12.35 ± 0.34
298.15 K, 101.33 kPa, x2 = 0.1426 | 13.44 ± 0.32
298.15 K, 101.33 kPa, x2 = 0.298 | 13.14 ± 0.31
298.15 K, 101.33 kPa, x2 = 0.7475 | 12.33 ± 0.29
298.15 K, 101.8 kPa, x2 = 0.1083 | 13.95 ± 0.37
298.15 K, 101.8 kPa, x2 = 0.3183 | 13.43 ± 0.37
298.15 K, 101.8 kPa, x2 = 0.5207 | 12.98 ± 0.37
298.15 K, 101.8 kPa, x2 = 0.7164 | 12.54 ± 0.36
308.15 K, 101.8 kPa, x2 = 0.1083 | 9.593 ± 0.37
308.15 K, 101.8 kPa, x2 = 0.3183 | 9.242 ± 0.34
308.15 K, 101.8 kPa, x2 = 0.5207 | 8.963 ± 0.34
308.15 K, 101.8 kPa, x2 = 0.7164 | 8.674 ± 0.34
308.15 K, 101.8 kPa, x2 = 0.907 | 8.384 ± 0.34
318.15 K, 101.8 kPa, x2 = 0.1083 | 6.748 ± 0.34
318.15 K, 101.8 kPa, x2 = 0.3183 | 6.559 ± 0.33
318.15 K, 101.8 kPa, x2 = 0.5207 | 6.332 ± 0.33
318.15 K, 101.8 kPa, x2 = 0.7164 | 6.148 ± 0.33
318.15 K, 101.8 kPa, x2 = 0.907 | 5.962 ± 0.33

O=CN1CCOCC1 + CCc1ccccc1
298.15 K, 101.3 kPa
Conditions | viscosity [mPa·s]
x2 = 0.03224 | 6.848 ± 0.048
x2 = 0.06252 | 6.122 ± 0.043
x2 = 0.08602 | 5.678 ± 0.041
x2 = 0.1584 | 4.43 ± 0.033
x2 = 0.2704 | 3.151 ± 0.024
x2 = 0.3512 | 2.527 ± 0.02
x2 = 0.4701 | 1.841 ± 0.015
x2 = 0.5569 | 1.511 ± 0.012
x2 = 0.6373 | 1.261 ± 0.01
x2 = 0.6888 | 1.137 ± 0.009
x2 = 0.7771 | 0.986 ± 0.008
x2 = 0.8636 | 0.829 ± 0.007
x2 = 0.9317 | 0.713 ± 0.006

NCc1ccccc1 + COc1ccccc1
303.15 K, 101 kPa
Conditions | viscosity [mPa·s]
x1 = 0.1 | 0.939 ± 0.02
x1 = 0.2 | 0.975 ± 0.021
x1 = 0.3 | 1.016 ± 0.022
x1 = 0.3999 | 1.061 ± 0.023
x1 = 0.4999 | 1.11 ± 0.024
x1 = 0.5999 | 1.163 ± 0.025
x1 = 0.7 | 1.22 ± 0.026
x1 = 0.8 | 1.281 ± 0.027
x1 = 0.9 | 1.346 ± 0.029

NCc1ccccc1 + CCC(C)(C)O
viscosity [mPa·s], 101.33 kPa
Conditions | x1 = 0.1 | x1 = 0.2001 | x1 = 0.3 | x1 = 0.4 | x1 = 0.5 | x1 = 0.6 | x1 = 0.6999 | x1 = 0.7994 | x1 = 0.8998
298.15 K | 3.228 ± 0.041 | 2.988 ± 0.038 | 2.781 ± 0.036 | 2.576 ± 0.033 | 2.394 ± 0.03 | 2.223 ± 0.028 | 2.067 ± 0.026 | 1.927 ± 0.024 | 1.792 ± 0.022
303.15 K | 2.641 ± 0.034 | 2.463 ± 0.032 | 2.289 ± 0.03 | 2.143 ± 0.028 | 1.995 ± 0.026 | 1.882 ± 0.024 | 1.773 ± 0.022 | 1.668 ± 0.021 | 1.578 ± 0.019
308.15 K | 2.193 ± 0.029 | 2.043 ± 0.027 | 1.919 ± 0.025 | 1.793 ± 0.023 | 1.696 ± 0.022 | 1.609 ± 0.021 | 1.533 ± 0.019 | 1.468 ± 0.018 | 1.422 ± 0.018

C=CCN=C=S + CCNc1ccccc1
viscosity [mPa·s], 101 kPa
Conditions | x1 = 0.2366 | x1 = 0.4021 | x1 = 0.4673 | x1 = 0.5 | x1 = 0.5346 | x1 = 0.6032 | x1 = 0.7385
298.15 K | 5.955 ± 0.16 | 18.81 ± 0.51 | 37.55 ± 0.99 | 48.24 ± 1.3 | 29.45 ± 0.8 | 7.747 ± 0.23 | 2.277 ± 0.064
323.15 K | 2.83 ± 0.076 | 6.28 ± 0.19 | 9.92 ± 0.34 | 11.98 ± 0.43 | 8.399 ± 0.28 | 3.234 ± 0.088 | 1.313 ± 0.034

S=C=S + CCO
298.15 K, 101 kPa
Conditions | viscosity [mPa·s]
x1 = 0.1096 | 0.9448 ± 0.0072
x1 = 0.1264 | 0.9535 ± 0.0073
x1 = 0.1726 | 0.9065 ± 0.007
x1 = 0.2241 | 0.8407 ± 0.0065
x1 = 0.2832 | 0.7621 ± 0.006
x1 = 0.4039 | 0.6659 ± 0.0054
x1 = 0.5848 | 0.5669 ± 0.0048
x1 = 0.6266 | 0.5466 ± 0.0047
x1 = 0.7329 | 0.4926 ± 0.0043
